{
  "source": "ChEMBL document CHEMBL3393049",
  "about": "“Syntheses and Antituberculosis Activity of 1,3-Benzothiazinone Sulfoxide and Sulfone Derived from BTZ043” (ACS Med Chem Lett, 2015)",
  "key": {"[1]": {"tested_on": "Mycobacterium tuberculosis", "assay": "Antimycobacterial activity against Mycobacterium tuberculosis H37Rv ATCC 27294 assessed as reduction in bacterial growth incubated for 7 days under GAS medium by MABA method", "assay_type": "functional", "conditions": "H37Rv ATCC 27294, 168 h"}, "[2]": {"assay": "Cytotoxicity against human MCF7 cells after 72 hrs by crystal violet biomass reduction assay", "assay_type": "cell-based"}, "Pseudomonas aeruginosa": {"tested_on": "Pseudomonas aeruginosa", "assay": "Antibacterial activity against Pseudomonas aeruginosa KW799/61 assessed as reduction in bacterial growth incubated for 18 to 20 hrs by broth microdilution method", "assay_type": "functional"}, "[3]": {"assay": "Cytotoxicity against human HeLa cells after 72 hrs by crystal violet biomass reduction assay", "assay_type": "cell-based"}, "Staphylococcus aureus": {"tested_on": "Staphylococcus aureus", "assay": "Antibacterial activity against Staphylococcus aureus SG511 assessed as reduction in bacterial growth incubated for 18 to 20 hrs by broth microdilution method", "assay_type": "functional"}, "Mycolicibacterium vaccae": {"tested_on": "Mycolicibacterium vaccae", "assay": "Antimycobacterial activity against Mycobacterium vaccae IMET10670 assessed as reduction in bacterial growth incubated for 18 to 20 hrs by broth microdilution method", "assay_type": "functional"}, "Acinetobacter baumannii": {"tested_on": "Acinetobacter baumannii", "assay": "Antibacterial activity against Acinetobacter baumannii ATCC 17961 assessed as reduction in bacterial growth incubated for 18 to 20 hrs by broth microdilution method", "assay_type": "functional"}, "[4]": {"tested_on": "Mycobacterium tuberculosis", "assay": "Antimycobacterial activity against Mycobacterium tuberculosis H37Rv ATCC 27294 assessed as reduction in bacterial growth incubated for 7 days under 7H12 medium by MABA method", "assay_type": "functional", "conditions": "H37Rv ATCC 27294, 168 h"}, "Mycolicibacterium aurum": {"tested_on": "Mycolicibacterium aurum", "assay": "Antimycobacterial activity against Mycobacterium aurum SB66 assessed as reduction in bacterial growth incubated for 18 to 20 hrs by broth microdilution method", "assay_type": "functional"}, "[5]": {"tested_on": "Mycolicibacterium smegmatis", "assay": "Antimycobacterial activity against Mycobacterium smegmatis str. MC2 155 assessed as reduction in bacterial growth incubated for 18 to 20 hrs by broth microdilution method", "assay_type": "functional"}, "Mycobacterium marinum": {"tested_on": "Mycobacterium marinum", "assay": "Antimycobacterial activity against Mycobacterium marinum ATCC 927 assessed as reduction in bacterial growth incubated for 5 days by MABA method", "assay_type": "functional", "conditions": "ATCC 927, 120 h"}, "Micrococcus luteus": {"tested_on": "Micrococcus luteus", "assay": "Antibacterial activity against Micrococcus luteus ATCC 10240 assessed as reduction in bacterial growth incubated for 18 to 20 hrs by broth microdilution method", "assay_type": "functional"}, "[6]": {"assay": "Cytotoxicity against human PC3 cells after 72 hrs by crystal violet biomass reduction assay", "assay_type": "cell-based, PC-3"}, "Mycobacterium kansasii": {"tested_on": "Mycobacterium kansasii", "assay": "Antimycobacterial activity against Mycobacterium kansasii ATCC 12478 assessed as reduction in bacterial growth incubated for 6 days by MABA method", "assay_type": "functional", "conditions": "ATCC 12478, 144 h"}},
  "data": [
    {"smiles": "C[C@H]1COC2(CCN(C3=NC(=O)c4cc(C(F)(F)F)cc([N+](=O)[O-])c4S3(=O)=O)CC2)O1", "values": [
      {"measurement": "MIC", "setting": "[1]", "result": 0.51, "unit": "µM"},
      {"measurement": "CC50 at 72 h", "setting": "[2]", "result": "> 20", "unit": "µM"},
      {"measurement": "MIC", "setting": "Pseudomonas aeruginosa", "result": "> 200", "unit": "µM"},
      {"measurement": "CC50 at 72 h", "setting": "[3]", "result": "> 20", "unit": "µM"},
      {"measurement": "MIC", "setting": "Staphylococcus aureus", "result": 200, "unit": "µM"},
      {"measurement": "MIC", "setting": "Mycolicibacterium vaccae", "result": "< 0.013", "unit": "µM"},
      {"measurement": "MIC", "setting": "Acinetobacter baumannii", "result": "> 200", "unit": "µM"},
      {"measurement": "MIC", "setting": "[4]", "result": 0.48, "unit": "µM"},
      {"measurement": "MIC", "setting": "Mycolicibacterium aurum", "result": "> 200", "unit": "µM"},
      {"measurement": "MIC", "setting": "[5]", "result": "> 0.5", "unit": "µM"},
      {"measurement": "MIC", "setting": "Mycobacterium marinum", "result": "> 1", "unit": "µM"},
      {"measurement": "MIC", "setting": "Micrococcus luteus", "result": "> 200", "unit": "µM"},
      {"measurement": "CC50 at 72 h", "setting": "[6]", "result": "> 20", "unit": "µM"},
      {"measurement": "MIC", "setting": "Mycobacterium kansasii", "result": "> 1", "unit": "µM"}
    ]},
    {"smiles": "C[C@H]1COC2(CCN(c3nc(=O)c4cc(C(F)(F)F)cc([N+](=O)[O-])c4[s+]3[O-])CC2)O1", "note": "(some centres not stated)", "values": [
      {"measurement": "MIC", "setting": "[1]", "result": "< 0.02", "unit": "µM"},
      {"measurement": "CC50 at 72 h", "setting": "[2]", "result": "> 20", "unit": "µM"},
      {"measurement": "MIC", "setting": "Pseudomonas aeruginosa", "result": "> 200", "unit": "µM"},
      {"measurement": "CC50 at 72 h", "setting": "[3]", "result": "> 20", "unit": "µM"},
      {"measurement": "MIC", "setting": "Staphylococcus aureus; read-out: MIC", "result": 12.5, "unit": "µM"},
      {"measurement": "MIC", "setting": "Mycolicibacterium vaccae", "result": "< 0.013", "unit": "µM"},
      {"measurement": "MIC", "setting": "Acinetobacter baumannii", "result": "> 200", "unit": "µM"},
      {"measurement": "MIC", "setting": "[4]", "result": 0.06, "unit": "µM"},
      {"measurement": "MIC", "setting": "Mycolicibacterium aurum", "result": 3.13, "unit": "µM"},
      {"measurement": "MIC", "setting": "[5]", "result": "< 0.013", "unit": "µM"},
      {"measurement": "MIC", "setting": "Mycobacterium marinum", "result": 0.19, "unit": "µM"},
      {"measurement": "MIC", "setting": "Micrococcus luteus", "result": 50, "unit": "µM"},
      {"measurement": "CC50 at 72 h", "setting": "[6]", "result": 15, "unit": "µM"},
      {"measurement": "MIC", "setting": "Mycobacterium kansasii", "result": 0.3, "unit": "µM"}
    ]},
    {"smiles": "NNC(=O)c1ccncc1", "note": "[ISONIAZID]", "values": [
      {"measurement": "MIC", "setting": "[1]", "result": 0.03, "unit": "µM"},
      {"measurement": "MIC", "setting": "[4]", "result": 0.1, "unit": "µM"},
      {"measurement": "MIC", "setting": "Mycobacterium marinum", "result": "> 8", "unit": "µM"},
      {"measurement": "MIC", "setting": "Mycobacterium kansasii", "result": 3.86, "unit": "µM"}
    ]},
    {"smiles": "C[C@H]1COC2(CCN(c3nc(=O)c4cc(C(F)(F)F)cc([N+](=O)[O-])c4s3)CC2)O1", "note": "[BTZ-043]", "values": [
      {"measurement": "MIC", "setting": "[1]", "result": "< 0.02", "unit": "µM"},
      {"measurement": "CC50 at 72 h", "setting": "[2]", "result": "> 20", "unit": "µM"},
      {"measurement": "MIC", "setting": "Pseudomonas aeruginosa", "result": "> 200", "unit": "µM"},
      {"measurement": "CC50 at 72 h", "setting": "[3]", "result": "> 20", "unit": "µM"},
      {"measurement": "MIC", "setting": "Staphylococcus aureus", "result": "> 200", "unit": "µM"},
      {"measurement": "MIC", "setting": "Mycolicibacterium vaccae", "result": 0.002, "unit": "µM"},
      {"measurement": "MIC", "setting": "Acinetobacter baumannii", "result": "> 200", "unit": "µM"},
      {"measurement": "MIC", "setting": "[4]", "result": "< 0.02", "unit": "µM"},
      {"measurement": "MIC", "setting": "Mycolicibacterium aurum", "result": "> 200", "unit": "µM"},
      {"measurement": "MIC", "setting": "[5]", "result": 0.002, "unit": "µM"},
      {"measurement": "MIC", "setting": "Mycobacterium marinum", "result": 0.037, "unit": "µM"},
      {"measurement": "MIC", "setting": "Micrococcus luteus", "result": "> 200", "unit": "µM"},
      {"measurement": "CC50 at 72 h", "setting": "[6]", "result": "> 20", "unit": "µM"},
      {"measurement": "MIC", "setting": "Mycobacterium kansasii", "result": "< 0.02", "unit": "µM"}
    ]},
    {"smiles": "O=C(O)c1cn(C2CC2)c2cc(N3CCNCC3)c(F)cc2c1=O", "note": "[CIPROFLOXACIN]", "values": [
      {"measurement": "MIC", "setting": "Pseudomonas aeruginosa", "result": 0.156, "unit": "µM"},
      {"measurement": "MIC", "setting": "Staphylococcus aureus; read-out: MIC", "result": 0.32, "unit": "µM"},
      {"measurement": "MIC", "setting": "Mycolicibacterium vaccae", "result": 0.32, "unit": "µM"},
      {"measurement": "MIC", "setting": "Acinetobacter baumannii", "result": 0.156, "unit": "µM"},
      {"measurement": "MIC", "setting": "Mycolicibacterium aurum", "result": 0.02, "unit": "µM"},
      {"measurement": "MIC", "setting": "[5]", "result": 0.32, "unit": "µM"},
      {"measurement": "MIC", "setting": "Micrococcus luteus", "result": 1.25, "unit": "µM"}
    ]},
    {"smiles": "CO[C@H]1/C=C/O[C@@]2(C)Oc3c(C)c(O)c4c(O)c(c(/C=N/N5CCN(C)CC5)c(O)c4c3C2=O)NC(=O)/C(C)=C\\C=C\\[C@H](C)[C@H](O)[C@@H](C)[C@@H](O)[C@@H](C)[C@H](OC(C)=O)[C@@H]1C", "note": "[RIFAMPIN]", "values": [
      {"measurement": "MIC", "setting": "[1]", "result": 0.04, "unit": "µM"},
      {"measurement": "MIC", "setting": "[4]", "result": 0.05, "unit": "µM"},
      {"measurement": "MIC", "setting": "Mycobacterium marinum", "result": 0.23, "unit": "µM"},
      {"measurement": "MIC", "setting": "Mycobacterium kansasii", "result": 0.1, "unit": "µM"}
    ]}
  ]
}
